Tests used:
[1] = molecular target: T1, L-type Ca2+ channels in A10 cells (Rattus norvegicus, UniProt P22002); assay: Inhibition of L-type calcium flux in A10 cells (FLIPR); type: cell-based
T1 construct: which endogenously expresses L-type calcium channels; host or cells: A10 rat aortic smooth muscle cells

[2] = test system: K+ channels in superior cervical ganglion (SCG) neurons; assay: Whole-cell voltage clamp, K+ current in SCG neurons; type: cell-based, rat
How it was run: (§1)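 Percent inhibition of control amplitude at steady-state block is the read-out: peak inward Na+ current at 0 mV, sustained K+ current at +50 mV, 35 msec steps every 10 sec from −65 to −55 mV. Recordings used whole-cell clamp of trypsin-dissociated SCG neurons, pH 7.4 external and pipette solutions, compounds applied by local perfusion.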

[3] = test system: Na+ channels in superior cervical ganglion (SCG) neurons; assay: Whole-cell voltage clamp, Na+ current in SCG neurons; type: cell-based, rat
How it was run: as §1

T1 sequence (P22002 whole entry): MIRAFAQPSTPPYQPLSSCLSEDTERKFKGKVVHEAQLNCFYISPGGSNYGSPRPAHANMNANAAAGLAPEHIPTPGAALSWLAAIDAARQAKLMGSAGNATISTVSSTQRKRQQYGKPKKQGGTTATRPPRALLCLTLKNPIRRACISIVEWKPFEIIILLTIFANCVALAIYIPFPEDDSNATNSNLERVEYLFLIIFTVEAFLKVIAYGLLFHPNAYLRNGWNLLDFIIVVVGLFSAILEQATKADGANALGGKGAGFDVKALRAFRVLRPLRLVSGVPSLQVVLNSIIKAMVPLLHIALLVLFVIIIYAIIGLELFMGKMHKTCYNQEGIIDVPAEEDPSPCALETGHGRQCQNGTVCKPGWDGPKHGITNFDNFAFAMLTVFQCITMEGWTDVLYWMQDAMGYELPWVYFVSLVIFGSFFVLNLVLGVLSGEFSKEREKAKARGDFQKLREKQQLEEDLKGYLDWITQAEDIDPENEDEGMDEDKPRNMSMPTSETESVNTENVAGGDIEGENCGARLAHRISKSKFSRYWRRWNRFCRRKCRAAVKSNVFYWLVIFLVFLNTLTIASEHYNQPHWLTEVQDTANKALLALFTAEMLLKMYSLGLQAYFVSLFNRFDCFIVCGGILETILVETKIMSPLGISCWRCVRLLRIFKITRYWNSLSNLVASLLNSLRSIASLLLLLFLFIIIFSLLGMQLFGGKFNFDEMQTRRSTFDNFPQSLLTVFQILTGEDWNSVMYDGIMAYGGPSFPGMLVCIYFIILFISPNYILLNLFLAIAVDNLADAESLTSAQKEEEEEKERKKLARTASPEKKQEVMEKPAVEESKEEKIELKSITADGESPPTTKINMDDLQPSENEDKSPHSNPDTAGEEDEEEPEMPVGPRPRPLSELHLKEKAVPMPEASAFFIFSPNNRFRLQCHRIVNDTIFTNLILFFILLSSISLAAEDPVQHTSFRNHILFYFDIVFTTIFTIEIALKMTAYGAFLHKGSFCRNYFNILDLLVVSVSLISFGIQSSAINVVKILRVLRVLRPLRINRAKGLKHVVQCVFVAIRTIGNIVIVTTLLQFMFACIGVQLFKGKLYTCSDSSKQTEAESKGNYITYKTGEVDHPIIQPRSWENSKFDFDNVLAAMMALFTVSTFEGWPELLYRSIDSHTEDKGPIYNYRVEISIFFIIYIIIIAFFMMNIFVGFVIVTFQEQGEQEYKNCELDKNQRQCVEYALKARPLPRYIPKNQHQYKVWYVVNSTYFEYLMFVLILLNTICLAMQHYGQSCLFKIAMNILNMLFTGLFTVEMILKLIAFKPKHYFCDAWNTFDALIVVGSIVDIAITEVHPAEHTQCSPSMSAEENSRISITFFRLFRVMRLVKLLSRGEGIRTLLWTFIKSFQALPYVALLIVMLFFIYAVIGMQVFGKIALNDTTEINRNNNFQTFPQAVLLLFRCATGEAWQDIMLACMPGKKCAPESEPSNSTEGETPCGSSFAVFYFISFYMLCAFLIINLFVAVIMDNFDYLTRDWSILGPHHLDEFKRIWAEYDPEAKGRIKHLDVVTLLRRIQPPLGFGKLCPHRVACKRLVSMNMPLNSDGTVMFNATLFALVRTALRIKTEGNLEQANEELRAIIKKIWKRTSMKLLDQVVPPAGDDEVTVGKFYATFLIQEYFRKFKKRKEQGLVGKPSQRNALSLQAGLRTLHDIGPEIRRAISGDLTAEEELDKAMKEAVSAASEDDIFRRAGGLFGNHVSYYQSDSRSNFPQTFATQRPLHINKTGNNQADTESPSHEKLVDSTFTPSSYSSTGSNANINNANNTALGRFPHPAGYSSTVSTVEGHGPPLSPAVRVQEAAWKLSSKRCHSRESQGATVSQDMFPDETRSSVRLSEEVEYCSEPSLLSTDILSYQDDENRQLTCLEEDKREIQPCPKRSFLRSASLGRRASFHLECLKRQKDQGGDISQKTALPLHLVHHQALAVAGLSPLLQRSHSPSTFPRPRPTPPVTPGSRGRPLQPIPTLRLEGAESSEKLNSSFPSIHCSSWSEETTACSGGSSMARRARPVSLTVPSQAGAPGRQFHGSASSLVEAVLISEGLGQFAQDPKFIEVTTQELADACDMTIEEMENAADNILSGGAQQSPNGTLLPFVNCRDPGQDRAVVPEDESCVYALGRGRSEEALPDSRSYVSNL
T1 sequence (P54290 25-944 partner limits assumed): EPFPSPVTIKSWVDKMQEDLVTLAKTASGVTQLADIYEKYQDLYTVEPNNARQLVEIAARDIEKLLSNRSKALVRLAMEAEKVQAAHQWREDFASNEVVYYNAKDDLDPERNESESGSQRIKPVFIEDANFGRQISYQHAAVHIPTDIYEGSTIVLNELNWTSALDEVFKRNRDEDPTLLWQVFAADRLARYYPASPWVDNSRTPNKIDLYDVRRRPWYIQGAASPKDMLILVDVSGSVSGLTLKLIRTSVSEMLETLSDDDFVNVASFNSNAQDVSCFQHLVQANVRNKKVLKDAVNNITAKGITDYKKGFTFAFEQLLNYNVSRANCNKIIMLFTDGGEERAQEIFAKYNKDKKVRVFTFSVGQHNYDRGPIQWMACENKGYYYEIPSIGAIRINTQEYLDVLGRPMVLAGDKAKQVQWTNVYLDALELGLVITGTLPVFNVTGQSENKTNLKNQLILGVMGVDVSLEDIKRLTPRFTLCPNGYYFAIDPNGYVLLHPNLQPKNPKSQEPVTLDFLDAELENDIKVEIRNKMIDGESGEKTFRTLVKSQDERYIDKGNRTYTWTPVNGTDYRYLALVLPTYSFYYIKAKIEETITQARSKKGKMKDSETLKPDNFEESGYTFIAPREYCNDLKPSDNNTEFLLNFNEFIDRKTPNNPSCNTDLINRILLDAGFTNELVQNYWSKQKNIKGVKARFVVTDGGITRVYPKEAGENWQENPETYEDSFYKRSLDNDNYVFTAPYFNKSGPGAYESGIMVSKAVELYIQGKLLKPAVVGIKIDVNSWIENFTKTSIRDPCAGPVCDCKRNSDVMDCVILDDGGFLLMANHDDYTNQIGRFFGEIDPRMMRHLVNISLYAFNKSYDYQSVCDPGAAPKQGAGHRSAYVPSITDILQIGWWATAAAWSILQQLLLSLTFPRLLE
T1 sequence (P54290 945-1091 partner limits assumed): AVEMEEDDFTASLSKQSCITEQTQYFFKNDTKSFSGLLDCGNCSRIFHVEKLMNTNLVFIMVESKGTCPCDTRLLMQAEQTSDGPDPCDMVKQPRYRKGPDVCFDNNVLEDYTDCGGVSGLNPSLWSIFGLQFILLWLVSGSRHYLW
T1 sequence (P54287 whole entry partner): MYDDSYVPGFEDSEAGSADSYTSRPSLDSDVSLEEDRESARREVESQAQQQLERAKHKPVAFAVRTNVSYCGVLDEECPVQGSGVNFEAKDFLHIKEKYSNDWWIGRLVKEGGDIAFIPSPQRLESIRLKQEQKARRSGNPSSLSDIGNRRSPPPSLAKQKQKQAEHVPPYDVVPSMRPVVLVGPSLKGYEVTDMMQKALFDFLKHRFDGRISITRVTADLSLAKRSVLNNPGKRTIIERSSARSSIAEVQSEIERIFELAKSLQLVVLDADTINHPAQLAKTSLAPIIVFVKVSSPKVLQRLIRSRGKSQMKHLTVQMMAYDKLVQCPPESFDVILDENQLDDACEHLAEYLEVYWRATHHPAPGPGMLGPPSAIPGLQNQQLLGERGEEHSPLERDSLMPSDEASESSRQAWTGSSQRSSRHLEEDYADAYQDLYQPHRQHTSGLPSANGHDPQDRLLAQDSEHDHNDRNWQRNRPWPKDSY

| SMILES | IC50 [1] [µM] | Inhibition of K+ Current, % Inhibition at 10 μM [2] [%] | IC50 ([2]; read-out: Inhibition of K+ Current IC50) [µM] | Inhibition of Na+ Current, % Inhibition at 10 μM [3] [%] | IC50 ([3]; read-out: Inhibition of Na+ Current IC50) [µM] |
| --- | --- | --- | --- | --- | --- |
| CC(C)C[C@H](NC(=O)N1CCCCCC1)C(=O)N[C@@H](Cc1ccc(OCc2ccccc2)cc1)C(=O)NCCCn1ccnc1 [Example 237, [S-(R*,R*)]-Azepane-1-carboxylic acid {(1-[2-(4-benzyloxy phenyl)-1-(3-imidazol-1-yl-propylcarbamoyl)-ethylcarbamoyl]-3-methyl-butyl}-amide] | 2.2 | – | – | – | – |
| CC(C)C[C@H](NC(=O)N1CCCCCC1)C(=O)N[C@@H](Cc1ccc(OCc2ccccc2)cc1)C(=O)OC(C)(C)C [Example 1] | 1.72 | 31 | 24 | 28 | 14 |
| CC(C)(C)OC(=O)[C@H](Cc1ccc(OCc2ccccc2)cc1)NC(=O)[C@H](Cc1ccccc1)NC(=O)N1CCCCCC1 [Example 16] | 0.28 | 20 | – | 38 | – |
| CC(C)(C)OC(=O)[C@H](Cc1ccc(OCc2ccccc2)cc1)NC(=O)CNC(=O)N1CCCCCC1 (stereo in doubt) [Example 8, [S-(R*,R*)]-2-{2-[(Azepane-1-carbonyl)-amino]-acetylamino}-3-(4-benzyloxy-phenyl)-propionic acid tert-butyl ester] | 0.18 | 72 | – | 43 | – |
| CC(C)C[C@H](NC(=O)N1CCCCCC1)C(=O)N[C@@H](Cc1ccc(C#CC2(O)CCCCC2)cc1)C(=O)NC(C)(C)C [Example 138, [S-(R*,R*)]-Azepane-1-carboxylic acid (1-({-tert-butylcarbamoyl-2-[4-(1-hydroxy-cyclohexylethynyl)-phenyl]-ethylcarbamoyl}-3-methyl-butyl)-amide] | 1.6 | 43 | – | 31 | – |
| CC(C)C[C@H](NC(=O)N1CCCCCC1)C(=O)N[C@@H](Cc1ccc(OCc2ccccn2)cc1)C(=O)OC(C)(C)C [Example 25, [S-(R*,R*)]-2-{2-[(Azepane-1-carbonyl)-amino]-4-methyl-pentanoylamino}-3-[4-(pyridin-2-ylmethoxy)-phenyl]-propionic acid tert-butyl ester] | 1.7 | 51 | – | 16 | – |
| CC(C)C[C@H](NC(=O)N1CCCCCC1)C(=O)N[C@@H](Cc1ccc(OCc2ccncc2)cc1)C(=O)OC(C)(C)C [Example 26, [S-(R*,R*)]-2-{2-[(Azepane-1-carbonyl)-amino]-4-methyl-pentanoylamino}-3-[4-(pyridin-4-ylmethoxy)-phenyl]-propionic acid tert-butyl ester] | 3 | 41 | – | 13 | – |
| CC(C)C[C@H](NC(=O)N1CCCCCC1)C(=O)N[C@@H](Cc1ccc(C=Cc2ccccc2)cc1)C(=O)NC(C)(C)C [Example 141, [S-(R*,R*)]-Azepane-1-carboxylic acid {1-[1-tert-butylcarbamoyl-2-(4-styryl-phenyl)-ethylcarbamoyl]-3-methyl-butyl}-amide] | 0.41 | 42 | – | 18 | – |
| CC(C)C[C@H](NC(=O)N1CCCCCC1)C(=O)N[C@@H](Cc1ccc(OCc2ccccc2)cc1)C(N)=O [Example 21, [S-(R*,R*)]-Azepane-1-carboxylic acid {1-[2-(4-benzyloxy-phenyl)-1-carbamoyl-ethylcarbamoyl]-3-methyl-butyl}-amide] | 1.6 | 56 | – | 16 | – |

Source: US6423689B1, “Peptidyl calcium channel blockers” (Warner-Lambert Company, priority 1997, dated 2002)
